In patent US5219867A, “Platelet aggregation inhibitory agents” (priority 1992, dated 1993):
Where a name gives a salt, the structure may show the parent alone. Read-outs that look alike come from different tables or passages of the source.

Columns and labels:
Type in all cases: cell-based
human blood platelets = assay: In vitro inhibition of ADP-induced human platelet aggregation (platelet-rich plasma, aggregometer)
Experimental: Procedure for Determining In Vitro Platelet Aggregation-Inhibitory Activity. Adenosine diphosphate (ADP) was used to induce platelet aggregation and was utilized as the sodium salt. A 10 mM stock solution was prepared fresh before each use in modified Tyrode's buffer and working dilutions were prepared with modified Tyrode's buffer immediately prior to use. The buffer contained NaCl (137.00 mM), KCl (2.70 mM), NaHCO3 (11.90 mM), NaH2 PO4 H2 O (0.36 mM) and glucose (5.60 mM) in redistilled water. Adjustment to pH 7.4 was effected by addition of 1N HCl.
The blood was transferred into plastic centrifuge tubes containing 3.2% sodium citrate (blood/citrate ratio 8:1) and centrifuged at 120Xg for 15 minutes at 23° C., yielding platelet-rich plasma (PRP); platelet-poor-plasma (PPP) was obtained by centrifugation of citrated whole blood at 1,100Xg for 15 min at 23° C. The platelet count of PRP was determined and adjusted to a final count of 300,000 platelet per mm^3 by dilution with autologous PPP. […] The plasma so obtained was transferred using a 1.0 ml Centaur pipette into a 50 ml polyethylene centrifuge tube. In order to maintain plasma pH in the appropriate range, the air in the tubes are displaced gently (2 minutes) with a 5% (CO2 -95% air (v/v) mixture and the tube capped. The plasma was maintained at 37° C. in a water bath until used in the aggregation experiments.
Assays of platelet aggregation were performed at least in duplicate, using plasma acquired from different donors, employing a method developed by Quintana, et al. (Quintana, et al., Relationships Between the Chemical Constitution of Carbamoylpiperidines and Related Compounds, and Their Inhibition of ADP-Induced Human Blood Platelet Aggregation, Thromb. Res. Vol. 22, Pages 665-680, 1981); Quintana, et al., Effects of Ethanol and of Other Factors on ADP-Induced Aggregation of Human Blood Platelets in Vitro, Thromb. Res., Vol. 20, Pages 405-415, 1980) (cf. Born, Nature, Vol. 194, Pages 927-929, 1962) and Mustard, et al., J. Lab. Clin. Med., Vol. 64, Pages 548-559, 1964).
Initially, in each experiment, 0.45-ml aliquots of PRP were placed in siliconized cuvettes and stirred (1,100 rpm) in the aggregometer at 37° C. to ascertain the absence of spontaneous aggregation. Appropriate ADP solutions (50 μl) were subsequently injected using a Hamilton microliter syringe to determine the minimal concentration eliciting maximal biphasic aggregation. […] In each case, the concentration of ADP so determined was used in eliciting aggregation throughout each specific set of aggregometric evaluations.
0.5 μl of a solution of the evaluant compound in redistilled 95% ethanol was injected into a stirred ([…]) 0.4-ml aliquot of plasma in a siliconized cuvette in the aggregometer-well (37° C). After 15 seconds, the cuvette was transferred to an incubator (also at 37° C.) and the contents held at this temperature, without stirring, until 2 minutes postinjection. The cuvette was then returned to the aggregometer-well, a base-line being recorded for 2 minutes to detect any spontaneous aggregation. At exactly 4 minutes after injection of the evaluant solution, 50 μl of the appropriate ADP solution was injected and aggregation recorded for 5.5 minutes. Evaluants were studied at least 4 different concentrations. Control experiments (ethanol in a final concentration of 0.095% v/v) were performed in conditions parallel with those involving the respective evaluants, and were initiated either 1 minute prior to or 1 minute after the start of experiments employing the test compounds. This permitted injections to be made precisely at the specified times.

human platelets = assay: Inhibition of collagen-induced aggregation, washed aequorin-loaded platelet suspension; details: Homo sapiens, Platelet; collagen-induced aggregation (n = 4); HEPES-buffered saline, 1.0 mM CaCl2; read-out: Ia50 ± S.E. Collagen-induced
Experimental: (§1) Procedure for Cytosolic Ionized Calcium Determination. The basic procedure of Yamaguchi, et al. (Thromb. Res., Vol. 44, Pages 165-174, 1986) was followed. Blood was collected from six blood donors, aged 24-38 years, who had fasted overnight and affirmed abstinence from alcohol, caffeine and medications of any kind for a period of at least one week prior to donation. […] Platelets were collected (800 g, 15 min), resuspended in and washed (800 g, 15 min) with HEPES-buffered saline (140 mM NaCl, 2.7 mM KCl, 0.1% bovine albumin, 0.5% glucose, 3.8 mM HEPES, pH 7.6) with EGTA (5 mM) and PGE1 (1 μM). The platelet pellet was resuspended in 90 μl of the same buffer and added to 20μl of 3 mg/ml aequorin solution in a 1.5 ml Eppendorf centrifuge tube. Six 1 μl aliquots of DMSO were added at 90 second intervals with brief, gentle mixing on a Vortex mixer and the platelet suspension was incubated 2 minutes after the last addition. One ml of HEPES-buffered saline was added, gently mixed, and again incubated for 2 minutes. The platelets were pelleted (1000 g, 30 sec), resuspended in HEPES-buffered saline to which was added either 1 mM Mg Cl2, (calcium-free buffer) or 1 mM Mg Cl2 and 1 mM Ca Cl2 (calcium buffer), depending on the experiment. The platelet count was adjusted to 3-4×10^5 platelets/μl.
(§2) The Platelet Ionized Calcium Aggregometer (Chrono-Log Corp., Ltd., Havertown, Pa.) was used to obtain simultaneous aggregation and luminescence data under the following experimental conditions: (1) platelet suspension, 1 ml, was equilibrated at 37° C. with stirring at 1100 rpm; (2) 100 μl (1.2 μg) of fibrinogen was added; (3) the vehicle (95% ethanol) or the test compound in vehicle was added; (4) when needed, 10 μl of the desired concentration of EGTA was added 30 seconds prior to addition of the agonist; then (5) the agonist (Collagen, 5 μg or 20 μg) was added and the time noted. At one minute after addition of the agonist in Channel 1, a platelet sample containing fibrinogen in Channel 2 was lysed with 10 μl of a 1:1 solution of Triton X-100 (final concentration 0.005%) 10 mM CaCl2 (final concentration 0.5 mM). Treated and control […] data were corrected for time dependent decay of fluorescence using data from the untreated lysed controls.
(§3) Normally 4 compound-treated samples (at 4 different concentrations) interspersed with 3 control samples were evaluated at 4.5 minute intervals starting 18-23 minutes after the DMSO treatment. The Ia50 values were calculated as described earlier. The compound concentrations effecting 50% inhibition (Ica50) of collagen-induced cytosolic ionized calcium values was determined by linear regression analysis.
Compounds I-rac, (+)-I,(IC) and (-)-I(IA) were evaluated. The Ia50 (collagen-induced aggregation) and Ica50 (compound concentration required to inhibit by 50% the collagen-induced rise in cytosolic ionized calcium)values determined with platelet suspensions in HEPES-buffered saline containing 1.0 mM CaCl2 were as follows: […]

[1] = system: cytosolic ionized calcium in human platelets; assay: Inhibition of collagen-induced rise in cytosolic ionized calcium (aequorin luminescence); details: collagen-induced, 1mM [Ca2+]o (n = 4), read-out: Ica50 ± S.E. Collagen-induced (50% inhibition of collagen-induced rise in cytosolic ionized calcium)
Experimental: as §1, §2, §3
Compounds I-rac, (+)-I,(IC) and (-)-I(IA) were evaluated. The Ia50 (collagen-induced aggregation) and Ica50 (compound concentration required to inhibit by 50% the collagen-induced rise in cytosolic ionized calcium)values determined with platelet suspensions in HEPES-buffered saline containing 1.0 mM CaCl2 were as follows:
Collagen-stimulation of platelets suspended in media containing 1.0 mM of Ca^2+ (FIG. 13) or 1.0 mM (FIG. 14A) or 2.0 mM (FIG. 14B) EGTA (a calcium chelator) gave […] cytosolic ionized calcium peak (aequorin-indicated luminescence). Contrarily, two phases of Ca^2+ mobilization were observed when aequorin-loaded human platelets suspended in a medium containing 0.1 mM EGTA were stimulated with collagen (FIG. 14, designation D). The first corresponded to platelet shape change and the second peak to aggregation. […] The platelet suspension (1.0 ml) was pre-incubated with 1.0 μl of (A) 95% ethanol, (B) a solution of Compound I (14.59 μM) in 95% ethanol, or (C) a solution of Compound I (23.87 μM) in 95% ethanol. Collagen (20 μg) was added at time indicated by the arrows. Luminescence was again recorded at a gain of 0.5. […] Accordingly, the stereo-selective inhibitory properties of the compounds of the present invention appear to be mediated through the inhibition of [Ca^2+ ].

[2] = Homo sapiens, Platelet, racemic compounds, ADP-induced, read-out: IC50 (compound concentration which inhibits ADP-induced platelet aggregation by 50%) ± S.E.
[3] = Homo sapiens, Platelet, read-out: IC50 (compound concentration which inhibits ADP-induced platelet aggregation by 50%) ± S.E., racemic compounds, ADP-induced
[4] = Homo sapiens, Platelet, read-out: Ia50 ± S.E. ADP-induced, table 4, ADP-induced, 5 to 7 individual determinations
[5] = Homo sapiens, Platelet, read-out: Ia50 (compound concentrations affecting 50% inhibition of aggregation) ± S.E., Table II, ADP-induced, n = 5 for (0)I and 6 for all others
[6] = Homo sapiens, Platelet, read-out: Ia50 ± S.E. ADP-Induced, table 3, ADP-induced (n = 5-6)

SMILES: CCN(CC)CC1CCCN(Cc2ccc(CN3CCCC(CN(CC)CC)C3)cc2)C1 (racemic) [Compound 4, α,α'-Bis[3-(N,N-diethylaminomethyl)-piperidino]-p-xylene tetrahydrochloride]
- IC50 (human blood platelets; [2]): 156 ± 460 µM
- IC50 (human blood platelets; Homo sapiens, Platelet, racemic compounds, C = IC50 × 10^-3, read-out: Log1/C (converted)): 1570 µM

SMILES: O=C(NCc1ccccc1)C1CCCN(Cc2ccc(CN3CCCC(C(=O)NCc4ccccc4)C3)cc2)C1 (racemic) [Compound 5, α,α'-Bis[3-(N-benzylcarbamoyl)piperidino]p-xylene dihydrobromide]
- IC50 (human blood platelets; [2]): 53.6 ± 5.3 µM

SMILES: CCN(Cc1ccccc1)C(=O)C1CCCN(Cc2ccc(CN3CCCC(C(=O)N(CC)Cc4ccccc4)C3)cc2)C1 (racemic) [Compound 6, α,α'-Bis[3-(N-benzyl-N-ethylcarbamoyl)piperidino]-p-xylene dihydrobromide]
- IC50 (human blood platelets; [2]): 37.7 ± 4.6 µM

SMILES: CCCN(Cc1ccccc1)C(=O)C1CCCN(Cc2ccc(CN3CCCC(C(=O)N(CCC)Cc4ccccc4)C3)cc2)C1 (racemic) [Compound 7, α,α'-Bis[3-(N-benzyl-N-propylcarbamoyl)piperidino]p-xylene dihydrobromide]
- IC50 (human blood platelets; [2]): 72.9 ± 20.8 µM

SMILES: O=C(C1CCCN(Cc2ccc(CN3CCCC(C(=O)N(Cc4ccccc4)Cc4ccccc4)C3)cc2)C1)N(Cc1ccccc1)Cc1ccccc1 (racemic) [Compound 8, α,α'-Bis[3-(N,N-dibenzylcarbamoyl)piperidino] p-xYlene dihydrobromide]
- IC50 (human blood platelets; [2]): 303 ± 60.8 µM

SMILES: O=C(C1CCCN(Cc2ccc(CN3CCCC(C(=O)N4CCCCC4)C3)cc2)C1)N1CCCCC1 (racemic) [Compound 10, α,α'-Bis[3-(piperidinocarbonyl)piperidino] p-xylene dihydrobromide]
- IC50 (human blood platelets; Homo sapiens, Platelet, table 4, ADP-induced, 5 to 7 individual determinations, read-out: Ia50 ± S.E. ADP-induced): 28.9 ± 8.96 µM

SMILES: CN(Cc1ccccc1)C(=O)C1CCCN(Cc2ccc(CN3CCCC(C(=O)N(C)Cc4ccccc4)C3)cc2)C1 (racemic) [Compound 13c, α,α'-Bis[3-(N-benzyl-N-methylcarbamoyl)piperidino]p-xylene]
- IC50 (human blood platelets; [3]): 27.3 ± 3.2 µM
- IC50 (human blood platelets; [4]): 27.3 ± 3.23 µM

SMILES: CN(Cc1ccccc1)C(=O)C1CCCN(Cc2ccc(CN3CCCC(C(=O)N(C)Cc4ccccc4)C3)cc2)C1 (single isomer, unassigned) [Compound 13c-A]
- IC50 (human blood platelets; read-out: Ia50 ± S.E. ADP-induced, table 4, ADP-induced, 5 to 7 individual determinations, listed as 13c-A(-)): 57.4 ± 6.01 µM

SMILES: CN(Cc1ccccc1)C(=O)C1CCCN(Cc2ccc(CN3CCCC(C(=O)N(C)Cc4ccccc4)C3)cc2)C1 (single isomer, unassigned) [Compound 13c-C]
- IC50 (human blood platelets; read-out: Ia50 ± S.E. ADP-induced, table 4, ADP-induced, 5 to 7 individual determinations, listed as 13c-C(+)): 9.55 ± 1.47 µM

SMILES: CCN(CC)C(=O)C1CCCN(Cc2ccc(CN3CCCC(C(=O)N(CC)CC)C3)cc2)C1 (single isomer, unassigned) [IA]
- IC50 (human blood platelets; [5]): 233 ± 52.1 µM
- IC50 (human blood platelets; [6]): 233 µM
- IC50 (human platelets): 199 µM
- IC50 ([1]; listed as IA (-)-I): 171 µM

SMILES: CN(C)CCCN1c2ccccc2Sc2ccc(Cl)cc21 [Chlorpromazine, reference compound]
- IC50 (human blood platelets; [5]): 156 ± 25.5 µM

SMILES: CCCCN(C)C(=O)C1CCCN(Cc2ccc(CN3CCCC(C(=O)N(C)CCCC)C3)cc2)C1 (stereo not drawn) [Compound 9, α,α'-Bis[3-(N-methyle-N-butylcarbamoyl)piperidino] p-xylene dihydrobromide]
- IC50 (human blood platelets; [3]): 22.1 ± 5.5 µM

SMILES: CN(Cc1ccccc1)C(=O)[C@@H]1CCCN(Cc2ccc(CN3CCC[C@H](C(=O)N(C)Cc4ccccc4)C3)cc2)C1 [Compound 13c-B]
- IC50 (human blood platelets; [4]): 46.9 ± 8.37 µM

SMILES: CCN(CC)C(=O)[C@@H]1CCCN(Cc2ccc(CN3CCC[C@H](C(=O)N(CC)CC)C3)cc2)C1 [IB]
- IC50 (human blood platelets; [5]): 41.4 ± 11.8 µM
- IC50 (human blood platelets; [6]): 41.4 µM
- IC50 (human platelets): 65.7 µM
- IC50 ([1]; Homo sapiens, Platelet): 24.3 µM

SMILES: CN1CCN(CCCN2c3ccccc3Sc3ccc(C(F)(F)F)cc32)CC1 [Trifluoperazine, reference compound]
- IC50 (human blood platelets; Homo sapiens, Platelet, Table II, ADP-induced, n = 5 for (0)I and 6 for all others, read-out: Ia50 (compound concentrations affecting 50% inhibition of aggregation) ± S.E.): 202 ± 21.9 µM
